From ChEMBL document CHEMBL3856279, “The discovery of new cytotoxic pyrazolopyridine derivatives” (Bioorg Med Chem Lett, 2016)

assay: Antiproliferative activity against human MIAPaCa2 cells after 48 hrs by MTS assay; format: functional, cell-based; settings: MIA PaCa-2, 48 h

SMILES	IC50 [µM]
c1ccc(Nc2nccc3cn[nH]c23)cc1	> 50
Clc1cc2cn[nH]c2c(Nc2ccccc2)n1	36.2
COc1cc(Nc2nc(Cl)cc3c(-c4ccccc4)n[nH]c23)cc(OC)c1OC	6.7
CC(C)c1n[nH]c2c(Nc3ccccc3)nccc12	41.2
Clc1cc2c(-c3ccccc3)n[nH]c2c(Nc2ccccc2)n1	4.3
COc1cc(Nc2nc(Cl)cc3c(C(C)C)n[nH]c23)cc(OC)c1OC	6.1
COc1cc(Nc2nccc3cn[nH]c23)cc(OC)c1OC	> 50
c1ccc(Nc2nccc3c(-c4ccccc4)n[nH]c23)cc1	9
COc1cc(Nc2nccc3c(C(C)C)n[nH]c23)cc(OC)c1OC	10
CC(C)c1n[nH]c2c(Nc3ccccc3)nc(Cl)cc12	21.5
COc1cc(Nc2nc(Cl)cc3cn[nH]c23)cc(OC)c1OC	16.2
COc1cc(Nc2nccc3c(-c4ccccc4)n[nH]c23)cc(OC)c1OC	3.8

assay: Induction of apoptosis in human PC3 cells assessed as appearance of apoptotic nuclei at antiproliferative IC50 after 48 hrs by propidium iodide staining based FACS analysis (reference value: 0.7 +/- 0.1%); format: functional, PC-3; settings: not given

SMILES	Activity [%]
COc1cc(Nc2nc(Cl)cc3c(-c4ccccc4)n[nH]c23)cc(OC)c1OC	0.9
COc1cc(Nc2nccc3c(-c4ccccc4)n[nH]c23)cc(OC)c1OC	25.8

assay: Cell cycle arrest in human PC3 cells assessed as accumulation at G2/M phase at antiproliferative IC50 after 48 hrs by propidium iodide staining based FACS analysis (reference value: 24 +/- 2.9%); format: functional; settings: PC-3

SMILES	Activity [%]
COc1cc(Nc2nc(Cl)cc3c(-c4ccccc4)n[nH]c23)cc(OC)c1OC	23.5
COc1cc(Nc2nccc3c(-c4ccccc4)n[nH]c23)cc(OC)c1OC	19.2

assay: Cell cycle arrest in human PC3 cells assessed as accumulation at G0/G1 phase at antiproliferative IC50 after 48 hrs by propidium iodide staining based FACS analysis (reference value: 38.3 +/- 0.7%); format: functional; settings: PC-3

SMILES	Activity [%]
COc1cc(Nc2nc(Cl)cc3c(-c4ccccc4)n[nH]c23)cc(OC)c1OC	46.2
COc1cc(Nc2nccc3c(-c4ccccc4)n[nH]c23)cc(OC)c1OC	80.8

assay: Antiproliferative activity against human A2058 cells after 48 hrs by MTS assay; format: functional, cell-based; settings: A2058, 48 h

SMILES	IC50 [µM]
COc1cc(Nc2nccc3c(-c4ccccc4)n[nH]c23)cc(OC)c1OC	0.89

assay: Antiproliferative activity against human DU145 cells after 48 hrs by MTS assay; format: functional, cell-based; settings: DU-145, 48 h

SMILES	IC50 [µM]
COc1cc(Nc2nccc3c(-c4ccccc4)n[nH]c23)cc(OC)c1OC	0.92

assay: Antiproliferative activity against human PC3 cells after 48 hrs by MTS assay; format: functional, cell-based; settings: PC-3, 48 h

SMILES	IC50 [µM]
COc1cc(Nc2nc(Cl)cc3c(-c4ccccc4)n[nH]c23)cc(OC)c1OC	15
COc1cc(Nc2nccc3c(-c4ccccc4)n[nH]c23)cc(OC)c1OC	0.38

assay: Cell cycle arrest in human PC3 cells assessed as accumulation at S phase at antiproliferative IC50 after 48 hrs by propidium iodide staining based FACS analysis (reference value: 37.7 +/- 2.2%); format: functional; settings: PC-3

SMILES	Activity [%]
COc1cc(Nc2nc(Cl)cc3c(-c4ccccc4)n[nH]c23)cc(OC)c1OC	30.3
COc1cc(Nc2nccc3c(-c4ccccc4)n[nH]c23)cc(OC)c1OC	0

assay: Antiproliferative activity against human SKOV3 cells after 48 hrs by MTS assay; format: functional, cell-based; settings: SK-OV-3, 48 h

SMILES	IC50 [µM]
c1ccc(Nc2nccc3cn[nH]c23)cc1	> 50
Clc1cc2cn[nH]c2c(Nc2ccccc2)n1	34.2
COc1cc(Nc2nc(Cl)cc3c(-c4ccccc4)n[nH]c23)cc(OC)c1OC	5.9
CC(C)c1n[nH]c2c(Nc3ccccc3)nccc12	48.3
Clc1cc2c(-c3ccccc3)n[nH]c2c(Nc2ccccc2)n1	2.5
COc1cc(Nc2nc(Cl)cc3c(C(C)C)n[nH]c23)cc(OC)c1OC	5.6
COc1cc(Nc2nccc3cn[nH]c23)cc(OC)c1OC	> 50
c1ccc(Nc2nccc3c(-c4ccccc4)n[nH]c23)cc1	22.1
COc1cc(Nc2nccc3c(C(C)C)n[nH]c23)cc(OC)c1OC	22.9
CC(C)c1n[nH]c2c(Nc3ccccc3)nc(Cl)cc12	> 50
COc1cc(Nc2nc(Cl)cc3cn[nH]c23)cc(OC)c1OC	13.1
COc1cc(Nc2nccc3c(-c4ccccc4)n[nH]c23)cc(OC)c1OC	0.73

assay: Antiproliferative activity against human WI38 cells after 48 hrs by MTS assay; format: cell-based; settings: WI-38, 48 h

SMILES	IC50 [µM]
c1ccc(Nc2nccc3cn[nH]c23)cc1	> 50
Clc1cc2cn[nH]c2c(Nc2ccccc2)n1	> 50
COc1cc(Nc2nc(Cl)cc3c(-c4ccccc4)n[nH]c23)cc(OC)c1OC	21.9
CC(C)c1n[nH]c2c(Nc3ccccc3)nccc12	> 50
Clc1cc2c(-c3ccccc3)n[nH]c2c(Nc2ccccc2)n1	23.4
COc1cc(Nc2nc(Cl)cc3c(C(C)C)n[nH]c23)cc(OC)c1OC	43.8
COc1cc(Nc2nccc3cn[nH]c23)cc(OC)c1OC	> 50
c1ccc(Nc2nccc3c(-c4ccccc4)n[nH]c23)cc1	24.7
COc1cc(Nc2nccc3c(C(C)C)n[nH]c23)cc(OC)c1OC	> 50
CC(C)c1n[nH]c2c(Nc3ccccc3)nc(Cl)cc12	38.7
COc1cc(Nc2nc(Cl)cc3cn[nH]c23)cc(OC)c1OC	> 50
COc1cc(Nc2nccc3c(-c4ccccc4)n[nH]c23)cc(OC)c1OC	14.9
